17 compounds from patent US10364263B2, “Cyclic phosphates and cyclic phosphoramidates for the treatment of neurologic disorders” (Retrophin, Inc., priority 2015, dated 2019) can be followed below.

Read-outs that look alike come from different tables or passages of the source.

Data set [1] is described as follows: Permeability in porcine brain endothelial cell blood-brain barrier model. Conditions: pig (endothelial cells), co-cultured with rat astrocytes, pH 7.4, PBECs/As blood-brain barrier model, luminal to basal. Type of data set: in vitro ADME. The gist of the method:
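Co-culture of primary porcine brain endothelial cells on Transwell inserts over primary rat astrocytes, with TEER >500 Ω/cm^2 and FITC-dextran integrity control. Compound added apically in HBSS/20 mM Hepes pH 7.4/0.1% BSA and basal amount measured usually after 60 min, by LC-MS/MS, fluorescence or scintillation. Papp in cm/s, corrected for cell-free filter.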

Data set [2] can be described thus: Stability in human plasma. Format: in vitro ADME. Conditions: 37° C. Summed up:
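Test compound at 3 μM (0.1% DMSO) was incubated in mouse or human plasma at 37 °C and sampled in duplicate at 0, 10, 20, 30, 40 and 60 min. Reactions were stopped with acetonitrile/formic acid containing internal standard. Remaining parent was measured by UPLC-MS/MS without a calibration curve.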

Another data set in a line: physchem. The note with it: buffer, phosphate buffered saline, 10 mM phosphate buffer pH 7.5, 37° C.
Data set [3] can be described thus: Chemical stability in aqueous solution (phosphate buffered saline, NMR).
Experimental: (§1) To measure chemical stability in aqueous solution, the half-life (t1/2), or time needed for the concentration to decrease by half, was determined for select compounds in phosphate buffered saline solution. Compounds were dissolved in a solution containing 10 mM phosphate buffer (pH 7.5) and 5% of D2O to a final concentration of −1 mM. All spectra were obtained at 37° C. on a Bruker Avance 600 NMR spectrometer equipped with an inverse broad-band probe with z-gradients. Data were obtained every 15 min for a total time period of 4 h or longer, according to the observed stability. ^31P NMR was performed at 242.55 MHz, with gated decoupling of the protons. An observation frequency range of 14619.9 Hz and 32 K complex data points were used for acquisition. A pulse angle of 90° and a 4-sec pulse cycle were utilized. Thirty-two accumulations were obtained before Fourier transformation of the free induction decay. ^1H NMR spectra were acquired using the 1DNOESY experiment with water presaturation for better solvent suppression. An observation frequency range of 12019.23 Hz, a 10-sec pulse cycle, and 32 K complex data points were used for acquisition. Sixty-four scans were added prior to Fourier transformation. Integral data were obtained using the TopSpin software.
(§2) Stability was determined based on analysis of disappearance of the compounds as a function of incubation time. Quantification of test compounds was measured as a peak area relative to an internal standard. The elimination constant, k, was calculated by plotting mean disappearance values on a semi-logarithmic scale and fitting with a best fit linear regression. The half-life (t1/2) expressed in hours was derived using Equation 1: t1/2=ln2/(−k). Equation 1:
[4] abbreviates: Diastereoisomer A, read-out: Papp Diastereoisomer A.
[5] abbreviates: Diastereoisomer A (upfield shift in 31P NMR), read-out: t1/2, Human Plasma, Diastereoisomer A (converted).
[6] abbreviates: pH 7.5, t1/2 (h) Diastereoisomer A, Diastereoisomer A = upfield shift in the 31P NMR.
[7] abbreviates: pH 7.5, t1/2 (h) Diastereoisomer B, Diastereoisomer B.
Setting [8] is: Diastereoisomer B, read-out: Papp Diastereoisomer B.
[9] abbreviates: pH 7.5, t1/2 (h) Diastereoisomer A, 10 mM phosphate buffer pH 7.5, 37° C., Diastereoisomer A = upfield shift in the 31P NMR.
Setting [10] is: pH 7.5, t1/2 (h) Diastereoisomer B, 10 mM phosphate buffer pH 7.5, 37° C., Diastereoisomer B.
The mark [11] stands for this setting: human, plasma, Diastereoisomer A (upfield shift in 31P NMR), read-out: t1/2, Human Plasma, Diastereoisomer A (converted).
Where [12] appears, read: human, plasma, Diastereoisomer B, read-out: t1/2, Human Plasma, Diastereoisomer B (converted).

Experimental for physchem: as §1, §2

Regarding `COC(=O)CCNC(=O)[C@@H]1OP(=O)(NCCN2CCCC2)OCC1(C)C` (stereo partly drawn) [compound 109, methyl 3-((4R)-5,5-dimethyl-2-oxido-2-((2-(pyrrolidin-1-yl)ethyl)amino)-1,3,2-dioxaphosphinane-4-carboxamido)propanoate], the Papp A→B at 60 min in data set [1] (setting [4]) amounted to 5.26 ×10⁻⁶ cm/s. In addition, the half-life at 3 µM in data set [2] (setting [5]) was over 1 h. Besides, the half-life in the data set “physchem” (setting [6]) was 48 h; in the data set “physchem” (setting [7]), 15.4 h.

As for `COC(=O)CCNC(=O)[C@@H]1OP(=O)(N[C@@H](C)C(=O)OCc2cc(C)cc(C)c2)OCC1(C)C` (stereo partly drawn) [compound 3, (2S)-3,5-dimethylbenzyl 2-(((4R)-4-((3-methoxy-3-oxopropyl)carbamoyl)-5,5-dimethyl-2-oxido-1,3,2-dioxaphosphinan-2-yl)amino)propanoate], the Papp A→B at 60 min was determined as 9.99 ×10⁻⁶ cm/s in data set [1] (setting [4]) and 8.47 ×10⁻⁶ cm/s in data set [1] (setting [8]). For the same compound, the half-life at 1 mM in data set [3] (setting [9]) and in data set [3] (setting [10]) was over 80 h each time. The half-life at 3 µM in data set [2] (setting [11]) and in data set [2] (setting [12]) was over 1 h in each case.

Regarding `COC(=O)CCNC(=O)[C@@H]1OP(=O)(OCCSC(=O)C(C)(C)C)OCC1(C)C` (stereo partly drawn) [Compound No. 2-133, Methyl 3-((4R)-5,5-dimethyl-2-oxido-2-(2-(pivaloylthio)ethoxy)-1,3,2-dioxaphosphinane-4-carboxamido)propanoate], the Papp A→B at 60 min is 21.1 ×10⁻⁶ cm/s in data set [1] (setting [4]) and 21 ×10⁻⁶ cm/s in data set [1] (setting [8]).

Take `COC(=O)CCNC(=O)[C@@H]1OP(=O)(OCOC(=O)OC(C)C)OCC1(C)C` (stereo partly drawn) [Compound No. 69, Methyl 3-((4R)-2-(((isopropoxycarbonyl)oxy)methoxy)-5,5-dimethyl-2-oxido-1,3,2-dioxaphosphinane-4-carboxamido)propanoate]: the values for the Papp A→B at 60 min in data set [1] (setting [4]) and in data set [1] (setting [8]) were 22.8 ×10⁻⁶ cm/s and 29.9 ×10⁻⁶ cm/s, respectively. The half-life at 3 µM in data set [2] (setting [11]) is over 1 h; in data set [2] (setting [12]), under 0.16 h.

Take `COC(=O)[C@H](C)NP1(=O)OCC(C)(C)[C@H](C(=O)NCCC(=O)OCc2ccncc2)O1` (stereo partly drawn) [compound 20, (2S)-methyl 2-(((4R)-5,5-dimethyl-2-oxido-4-((3-oxo-3-(pyridin-4-ylmethoxy)propyl)carbamoyl)-1,3,2-dioxaphosphinan-2-yl)amino)propanoate]: the Papp A→B at 60 min worked out at 4.79 ×10⁻⁶ cm/s in data set [1] (setting [4]) and 3.38 ×10⁻⁶ cm/s in data set [1] (setting [8]). In addition, the half-life at 1 mM in data set [3] (setting [9]) and in data set [3] (setting [10]) was over 80 h throughout. Besides, the half-life at 3 µM in data set [2] (setting [11]) is 0.74 h; in data set [2] (setting [12]), over 1 h.

Regarding `COC(=O)CCNC(=O)[C@@H]1OP(=O)(OCOC(=O)C(C)(C)C)OCC1(C)C` (stereo partly drawn) [Compound No. 65, (((4R)-4-((3-methoxy-3-oxopropyl)carbamoyl)-5,5-dimethyl-2-oxido-1,3,2-dioxaphosphinan-2-yl)oxy)methyl pivalate], the Papp A→B at 60 min is 20.3 ×10⁻⁶ cm/s in data set [1] (setting [4]) and 18.3 ×10⁻⁶ cm/s in data set [1] (setting [8]). Also, the half-life at 1 mM was 40.5 h in data set [3] (setting [9]) and 7.2 h in data set [3] (setting [10]). For the same compound, the half-life at 3 µM in data set [2] (setting [11]) was over 1 h; in data set [2] (setting [12]), under 0.16 h.

Consider `COC(=O)CCNC(=O)[C@@H]1OP(=O)(N[C@@H](C)C(=O)OCCc2ccccc2)OCC1(C)C` (stereo partly drawn) [Compound No. 2, Methyl 3-((4R)-5,5-dimethyl-2-oxido-2-(((S)-1-oxo-1-phenethoxypropan-2-yl)amino)-1,3,2-dioxaphosphinane-4-carboxamido)propanoate], for which the Papp A→B at 60 min was 3.35 ×10⁻⁶ cm/s in data set [1] (setting [4]) and 2.61 ×10⁻⁶ cm/s in data set [1] (setting [8]). Further, the half-life at 3 µM in data set [2] (setting [11]) is 0.95 h; in data set [2] (setting [12]), 0.9 h.

For `CC(C)(C)C(=O)OCO[P@@]1(=O)OCC(C)(C)[C@H](C(=O)NCCC(=O)O)O1` [Compound No. 91, 3-((2S,4R)-5,5-dimethyl-2-oxido-2-((pivaloyloxy)methoxy)-1,3,2-dioxaphosphinane-4-carboxamido)propanoic acid], the Papp A→B at 60 min in data set [1] (setting [4]) came out at 0.45 ×10⁻⁶ cm/s. In data set [2] (setting [11]), the half-life at 3 µM is over 1 h.

`COC(=O)CCNC(=O)[C@@H]1OP(=O)(OCOC(=O)c2ccccc2)OCC1(C)C` (stereo partly drawn) [Compound No. 64, (((4R)-4-((3-methoxy-3-oxopropyl)carbamoyl)-5,5-dimethyl-2-oxido-1,3,2-dioxaphosphinan-2-yl)oxy)methyl benzoate]: the Papp A→B at 60 min was determined as 16 ×10⁻⁶ cm/s in data set [1] (setting [4]) and 20.7 ×10⁻⁶ cm/s in data set [1] (setting [8]). Besides, the half-life at 1 mM is 87 h in data set [3] (setting [9]) and 13 h in data set [3] (setting [10]). The half-life at 3 µM in data set [2] (setting [11]) and in data set [2] (setting [12]) was under 0.16 h each time.

For `COC(=O)CCNC(=O)[C@@H]1OP(=O)(OCOC(=O)c2cncs2)OCC1(C)C` (stereo partly drawn) [Compound No. 70, (((4R)-4-((3-methoxy-3-oxopropyl)carbamoyl)-5,5-dimethyl-2-oxido-1,3,2-dioxaphosphinan-2-yl)oxy)methyl thiazole-5-carboxylate], the Papp A→B at 60 min came to 1.58 ×10⁻⁶ cm/s in data set [1] (setting [4]) and 2.56 ×10⁻⁶ cm/s in data set [1] (setting [8]). Besides, the half-life at 3 µM in data set [2] (setting [11]) and in data set [2] (setting [12]) was under 0.16 h throughout.

As for `CCc1cc(C(=O)OCOP2(=O)OCC(C)(C)[C@H](C(=O)NCCC(=O)OC)O2)n(C)n1` (stereo partly drawn) [Compound No. 84, (((4R)-4-((3-methoxy-3-oxopropyl)carbamoyl)-5,5-dimethyl-2-oxido-1,3,2-dioxaphosphinan-2-yl)oxy)methyl 3-ethyl-1-methyl-1H-pyrazole-5-carboxylate], the values for the Papp A→B at 60 min in data set [1] (setting [4]) and in data set [1] (setting [8]) were 10.1 ×10⁻⁶ cm/s and 14.5 ×10⁻⁶ cm/s, respectively. In addition, the figures for the half-life at 3 µM in data set [2] (setting [11]) and in data set [2] (setting [12]) were over 1 h and 0.96 h, respectively.

As to `COC(=O)CCNC(=O)[C@@H]1OP(=O)(N[C@@H](C)C(=O)OCc2cccnc2)OCC1(C)C` (stereo partly drawn) [compound 24, methyl 3-((4R)-5,5-dimethyl-2-oxido-2-(((S)-1-oxo-1-(pyridin-3-ylmethoxy)propan-2-yl)amino)-1,3,2-dioxaphosphinane-4-carboxamido)propanoate], the Papp A→B at 60 min in data set [1] (setting [4]) is 0.54 ×10⁻⁶ cm/s; in data set [1] (setting [8]) it was 0.6 ×10⁻⁶ cm/s. Also, the half-life at 3 µM was 0.26 h in data set [2] (setting [11]) and 0.82 h in data set [2] (setting [12]).

Turning to `COC(=O)CCNC(=O)[C@@H]1OP(=O)(N[C@@H](C)C(=O)OCc2ccccc2)OCC1(C)C` (stereo partly drawn) [Compound No. 11, Benzyl ((4R)-4-((3-methoxy-3-oxopropyl)carbamoyl)-5,5-dimethyl-2-oxido-1,3,2-dioxaphosphinan-2-yl)-L-alaninate], the Papp A→B at 60 min was found to be 3.52 ×10⁻⁶ cm/s in data set [1] (setting [4]) and 3.12 ×10⁻⁶ cm/s in data set [1] (setting [8]). Also, the half-life at 1 mM in data set [3] (pH 7.5, half-lives, phosphate buffered saline solution, both diastereoisomers) is over 60 h; in data set [3] (setting [9]), over 100 h; in data set [3] (setting [10]), over 60 h.

With `COC(=O)CCNC(=O)[C@@H]1OP(=O)(N[C@H](C)C(=O)OC)OCC1(C)C` (stereo partly drawn) [compound 16, methyl 3-((4R)-2-(((R)-1-methoxy-1-oxopropan-2-yl)amino)-5,5-dimethyl-2-oxido-1,3,2-dioxaphosphinane-4-carboxamido)propanoate], the Papp A→B at 60 min in data set [1] (setting [4]) was found to be 3.33 ×10⁻⁶ cm/s; in data set [1] (setting [8]), 4.35 ×10⁻⁶ cm/s. For the same compound, in data set [2] (setting [5]), the half-life at 3 µM is over 1 h. The “t1/2, Human Plasma, Diastereoisomer B” value in data set [2] (Diastereoisomer B, 3 μM) is recorded as over 1 h. The half-life in the data set “physchem” (setting [6]) and in the data set “physchem” (setting [7]) was over 80 h each time.

For `CC1(C)COP(=O)(O)O[C@H]1C(=O)NCCC(=O)O` [compound 108, 3-((4R)-2-hydroxy-5,5-dimethyl-2-oxido-1,3,2-dioxaphosphinane-4-carboxamido)propanoic acid], the Papp A→B at 60 min in data set [1] (setting [4]) stood at 0.58 ×10⁻⁶ cm/s. Also, the half-life at 1 mM in data set [3] (pH 7.5, t1/2 (h), pH 7.5, 37° C., compound not chiral at phosphorous, one value spanning both columns) is over 100 h. Besides, in data set [2] (setting [11]), the half-life at 3 µM was 0.83 h.

Regarding `COC(=O)CCNC(=O)[C@@H]1OP(=O)(N[C@@H](Cc2ccccc2)C(=O)OCc2ccccc2)OCC1(C)C` (stereo partly drawn) [compound 10, benzyl ((4R)-4-((3-methoxy-3-oxopropyl)carbamoyl)-5,5-dimethyl-2-oxido-1,3,2-dioxaphosphinan-2-yl)-L-phenylalaninate], the Papp A→B at 60 min in data set [1] (setting [4]) amounted to 10.1 ×10⁻⁶ cm/s; in data set [1] (setting [8]) it was 14 ×10⁻⁶ cm/s.

Take `COC(=O)CCNC(=O)[C@@H]1OP(=O)(NCCC(=O)OCc2ccccc2)OCC1(C)C` (stereo partly drawn) [compound 117, benzyl 3-(((4R)-4-((3-methoxy-3-oxopropyl)carbamoyl)-5,5-dimethyl-2-oxido-1,3,2-dioxaphosphinan-2-yl)amino)propanoate]: the results for the Papp A→B at 60 min in data set [1] (setting [4]) and in data set [1] (setting [8]) were 1.95 ×10⁻⁶ cm/s and 2.9 ×10⁻⁶ cm/s, respectively. Besides, the half-life at 3 µM in data set [2] (setting [11]) and in data set [2] (setting [12]) was over 1 h in each case.
